Laboratory results taken from PMC12031583 (Toxins, 2025).
Several values for one entry are separate records, joined by “and”; a condition that tells them apart may be missing. Identical values can stand only once. Like-named read-outs stand apart in the source and are kept apart here.

Tests used:
[1] = target: T1, α1-acid glycoprotein (AGP) (Homo sapiens, UniProt P02763); conditions: for effect on fluorescence emission signal of AGP / logK FL Quenching: pH 7.4
[2] = target: T2, α-lactalbumin (LA, bovine) (Bos taurus, UniProt P00711); format: binding; conditions: pH 6.8
T2 sequence (P00711 20-142 limits assumed): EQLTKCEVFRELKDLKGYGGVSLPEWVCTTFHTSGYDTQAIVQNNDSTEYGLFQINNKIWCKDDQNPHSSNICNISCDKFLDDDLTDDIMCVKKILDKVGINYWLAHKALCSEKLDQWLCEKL

[3] = target: T3, β-lactoglobulin (LG, bovine) (Bos taurus, UniProt P02754); test: biochemical; format: binding
T3 sequence (P02754 17-178 limits assumed): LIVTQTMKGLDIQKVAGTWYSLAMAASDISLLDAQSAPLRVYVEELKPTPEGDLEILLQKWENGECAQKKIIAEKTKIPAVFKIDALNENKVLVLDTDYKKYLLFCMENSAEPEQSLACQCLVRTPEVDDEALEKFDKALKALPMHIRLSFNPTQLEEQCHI

[4] = target: T4, bovine serum albumin (BSA) (Bos taurus, UniProt P02769); conditions: cited from earlier work
T4 sequence (P02769 25-607 limits assumed): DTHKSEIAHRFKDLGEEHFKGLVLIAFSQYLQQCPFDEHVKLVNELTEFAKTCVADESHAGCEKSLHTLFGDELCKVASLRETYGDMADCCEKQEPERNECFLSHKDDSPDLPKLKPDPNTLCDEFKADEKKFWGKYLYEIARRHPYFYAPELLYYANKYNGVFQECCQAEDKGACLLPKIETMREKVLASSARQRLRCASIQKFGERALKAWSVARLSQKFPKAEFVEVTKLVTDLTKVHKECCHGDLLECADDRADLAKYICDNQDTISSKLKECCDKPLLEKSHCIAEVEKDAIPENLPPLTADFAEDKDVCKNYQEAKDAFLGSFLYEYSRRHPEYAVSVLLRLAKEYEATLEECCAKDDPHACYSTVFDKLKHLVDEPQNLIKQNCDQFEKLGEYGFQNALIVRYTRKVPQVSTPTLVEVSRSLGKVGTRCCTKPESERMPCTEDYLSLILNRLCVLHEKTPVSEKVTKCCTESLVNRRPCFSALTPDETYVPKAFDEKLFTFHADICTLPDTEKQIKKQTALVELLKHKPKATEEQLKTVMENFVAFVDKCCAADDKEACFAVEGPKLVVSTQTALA

casein (CSN, bovine) [5] = format: binding; conditions: pH 6.8
casein (CSN, bovine) [6] = format: binding; conditions: pH 6.8; remark: listed apart in the source
[7] = target: T2, α-lactalbumin (LA, bovine); test: biochemical; format: binding
[8] = target: T4, bovine serum albumin (BSA)
[9] = target: T4, bovine serum albumin (BSA); test: biochemical; conditions: logK BSA
[10] = tested on: human serum albumin (HSA); conditions: cited from earlier work
[11] = target: T1, α1-acid glycoprotein (AGP); conditions: for logK FL Enhancement: pH 7.4
[12] = target: T1, α1-acid glycoprotein (AGP); format: binding
[13] = target: T1, α1-acid glycoprotein (AGP); conditions: pH 7.4
[14] = target: T3, β-lactoglobulin (LG, bovine); format: binding; conditions: pH 6.8
[15] = target: T1, α1-acid glycoprotein (AGP); test: in vitro
[16] = target: T1, α1-acid glycoprotein (AGP); test: in vitro; remark: listed apart in the source
[17] = target: T1, α1-acid glycoprotein (AGP); test: in vitro; conditions: pH 7.4

T1 sequence (P02763 19-201 limits assumed): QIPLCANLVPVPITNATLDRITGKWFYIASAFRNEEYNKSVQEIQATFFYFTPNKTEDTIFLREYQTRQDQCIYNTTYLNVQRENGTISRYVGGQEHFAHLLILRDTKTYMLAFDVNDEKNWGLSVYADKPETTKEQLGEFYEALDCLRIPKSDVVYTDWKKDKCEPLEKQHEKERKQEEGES

CCCC[C@@H](C)[C@@H](OC(=O)C[C@@H](CC(=O)O)C(=O)O)[C@H](C[C@@H](C)C[C@H](O)CCCC[C@@H](O)C[C@H](O)[C@H](C)N)OC(=O)C[C@@H](CC(=O)O)C(=O)O [FB1, fumonisin B1]
effect on fluorescence emission signal of AGP [1]: no or only minor decreases

aflatoxin B1 [AFB1]
effect on fluorescence emission signal of AGP [1]: no or only minor decreases
quenching effect on fluorescence emission signal of LA [2]: slight
effect of LG on mycotoxin level (free fraction) in supernatant ([3]; pH 6.8): did not modify
logK of AFB1–BSA [4]: ≈ 4.5
effect on fluorescence emission signal of CSN (casein (CSN, bovine) [5]): slight decreases
logK CSN (casein (CSN, bovine) [6]): 3.3 and 3.34 ± 0.03
effect of LA on mycotoxin level (free fraction) in supernatant ([7]; pH 6.8): did not modify
logK BSA ([8]; pH 6.8): 4.1 and 4.11 ± 0.02

COc1cc2c(c3oc4cccc(O)c4c(=O)c13)[C@@H]1C=CO[C@@H]1O2 [STC, sterigmatocystin]
effect on fluorescence emission signal of AGP [1]: larger, concentration-dependent decreases
effect of LG on mycotoxin level (free fraction) in supernatant ([3]; pH 6.8): not influenced
Kd [9]: 100 µM and 105 µM
K value of STC–HSA complex [10]: ≈ 2 × 10^4 L/mol
effect of CSN on mycotoxin level (free fraction) in supernatant (casein (CSN, bovine) [6]): not influenced
effect of LA on mycotoxin level (free fraction) in supernatant ([7]; pH 6.8): not influenced

CC(=O)C1=C(O)[C@@H]2[C@H]3c4c[nH]c5cccc(c45)C[C@H]3C(C)(C)N2C1=O [CPA, cyclopiazonic acid]
effect on fluorescence emission signal of AGP [1]: no or only minor decreases

C[C@H]1CCC[C@@H](O)CCC/C=C/c2cc(O)cc(O)c2C(=O)O1 [β-ZEL, β-zearalenol]
logK ± SEM 1. (FL quenching) [1]: 5.76 ± 0.06
logK ± SEM 2. (FL quenching) [1]: 5.82 ± 0.09
logK ± SEM 3. (FL quenching) [1]: 5.76 ± 0.08
logK FL Quenching [1]: 5.78 ± 0.02
logK ± SEM 1. (FL enhancement) [11]: 5.83 ± 0.04
logK ± SEM 2. (FL enhancement) [11]: 5.94 ± 0.16
logK ± SEM 3. (FL enhancement) [11]: 6.04 ± 0.11
logK FL Enhancement [11]: 5.94 ± 0.06
binding constant (K) of mycotoxin–AGP complex [12]: ~600000 L/mol
fold higher affinity to AGP compared to HSA [12]: ~30 fold
logK of complex with HSA [10]: 4.3
logK Ultracentrifugation [13]: 5.73 ± 0.02

CC1=C[C@H]2O[C@@H]3[C@H](O)C[C@](C)([C@@]2(CO)[C@H](O)C1=O)[C@]31CO1 [DON, deoxynivalenol]
effect on fluorescence emission signal of AGP [1]: no or only minor decreases

aflatoxin M1 [AFM1]
effect of LG on mycotoxin level (free fraction) in supernatant ([3]; pH 6.8): did not show interactions
logK CSN (casein (CSN, bovine) [6]): 2.70 ± 0.08
effect of LA on mycotoxin level (free fraction) in supernatant ([7]; pH 6.8): did not show interactions
fold higher affinity (binding constant) to BSA vs CSN [8]: 10 fold
logK BSA ([8]; pH 6.8): 3.80 ± 0.03

CC(=O)OC[C@]12C[C@H](OC(=O)CC(C)C)C(C)=C[C@H]1O[C@@H]1[C@H](O)[C@@H](OC(C)=O)[C@@]2(C)[C@]12CO2 [T2, T-2 toxin]
effect on fluorescence emission signal of AGP [1]: no or only minor decreases
effect on fluorescence emission signal of LG [14]: minor increase

C[C@@H]1Cc2c(Cl)cc(C(=O)N[C@@H](Cc3ccccc3)C(=O)O)c(O)c2C(=O)O1 [OTA, ochratoxin A]
effect on fluorescence emission signal of AGP [1]: no or only minor decreases
quenching effect on fluorescence emission signal of LA [2]: slight
logK of OTA–BSA and AOH–BSA complexes [4]: 6.5
effect on fluorescence emission signal of CSN (casein (CSN, bovine) [5]): slight decreases

C[C@H]1CCCC(=O)CCC/C=C/c2cc(O)cc(O)c2C(=O)O1 [ZEN, zearalenone]
effect on fluorescence emission signal of AGP [1]: larger, concentration-dependent decreases
quenching effect on fluorescence emission signal of LA [2]: slight
Kd [3]: 891 µM
logK of ZEN–BSA and α-ZEL–BSA complexes [4]: 4.8
Kd ([15]; pH 7.4, logK FL Quenching): 1.26 µM
Kd ([15]; pH 7.4, logK ± SEM 1. (FL quenching)): 1.35 µM
Kd ([15]; pH 7.4, logK ± SEM 2. (FL quenching)): 1.45 µM
Kd ([15]; pH 7.4, logK ± SEM 3. (FL quenching)): 1 µM
Kd ([16]; pH 7.4, logK FL Enhancement): 0.525 µM
Kd ([16]; pH 7.4, logK ± SEM 1. (FL enhancement)): 0.661 µM
Kd ([16]; pH 7.4, logK ± SEM 2. (FL enhancement)): 0.407 µM
Kd ([16]; pH 7.4, logK ± SEM 3. (FL enhancement)): 0.55 µM
Kd [9]: 15.8 µM and 16.2 µM
Kd [17]: 0.372 µM
logK of complex with HSA [10]: 5.1
logK CSN (casein (CSN, bovine) [6]): 3.48 ± 0.01
Kd [7]: 1620 µM
fold higher affinity (binding constant) to BSA vs CSN ([8]; bovine, ultracentrifugation, pH 6.8): approximately 20 fold

Cc1cc(O)cc2oc(=O)c3c(O)cc(O)cc3c12 [AOH, alternariol]
logK of OTA–BSA and AOH–BSA complexes [4]: 5.9

CC1=C2C(=CO[C@H](C)[C@H]2C)C(O)=C(C(=O)O)C1=O [CIT, citrinin]
effect on fluorescence emission signal of AGP [1]: no or only minor decreases

C[C@H]1CCC[C@H](O)CCC/C=C/c2cc(O)cc(O)c2C(=O)O1 [α-ZEL, α-zearalenol]
logK ± SEM 1. (FL quenching) [1]: 5.57 ± 0.07
logK ± SEM 2. (FL quenching) [1]: 5.67 ± 0.05
logK ± SEM 3. (FL quenching) [1]: 5.70 ± 0.06
logK FL Quenching [1]: 5.65 ± 0.04
quenching effect on fluorescence emission signal of LA [2]: slight
logK LG ([3]; pH 6.8): 3.35 ± 0.03
logK of ZEN–BSA and α-ZEL–BSA complexes [4]: 4.5
logK ± SEM 1. (FL enhancement) [11]: 5.46 ± 0.06
logK ± SEM 2. (FL enhancement) [11]: 5.46 ± 0.08
logK ± SEM 3. (FL enhancement) [11]: 5.62 ± 0.07
logK FL Enhancement [11]: 5.51 ± 0.05
effect on fluorescence emission signal of CSN (casein (CSN, bovine) [5]): slight decreases
binding constant (K) of mycotoxin–AGP complex [12]: approximately 3 × 10^5 L/mol
fold higher affinity to AGP compared to HSA [12]: ~5 fold
logK of complex with HSA [10]: 4.7
logK CSN (casein (CSN, bovine) [6]): 3.54 ± 0.01
logK LA ([7]; pH 6.8): 2.92 ± 0.06
fold higher affinity (binding constant) to BSA vs CSN [8]: approximately 20 fold
logK Ultracentrifugation [13]: 5.48 ± 0.07

O=C1C=C2C(=CCOC2O)O1 (centres unmarked) [PAT, patulin]
effect on fluorescence emission signal of AGP [1]: no or only minor decreases
